Molecular target: IDO1 (Homo sapiens, UniProt P14902)
Assay: IDO1 Cellular Assay in HeLa Cells Stimulated with IFNγ
Type: cell-based
Conditions: IFNγ 100 ng/mL, 300 uM L-tryptophan, about 48 hours, fluorescence readout, read-out: IDO1 HELA Cell Assay, IC50
Procedure: Biological Assays IDO1 Cellular Assay in HeLa Cells Stimulated with IFNγ
HeLa cells were cultured in complete HeLa culture medium (90% EMEM, 10% heat-inactivated fetal bovine serum) and expanded to about 1×10^9 cells. The cells were then collected and frozen down at 1×10^7 cells/vial in 1 mL frozen medium (90% complete HeLa culture medium, 10% DMSO).
Compounds to be tested were serially diluted in ten 3-fold steps in DMSO starting from 10 mM DMSO stocks in Echo low volume plate(s). Compound dilutions or DMSO alone were then dispensed from the dilution plate(s) into Greiner black 384-well assay plate(s) (catalog #781086, 50 nL/well) using an Echo 550 acoustic liquid handler (Labcyte).
Frozen HeLa cells were thawed and transferred into HeLa assay medium (99% complete HeLa culture medium, 1% Pen/Strep) with 20 mL medium/vial of cells. The cells were spun down at 250 g in a table top centrifuge for 5 min and suspended in same volume of HeLa assay medium. The cells were then counted and adjusted to a density of 2×10^5 cells/mL in HeLa assay medium. Sterile L-tryptophan were added to the cells with final concentration of 300 uM L-tryptophan. A small aliquot (2 mL/plate) of HeLa cells were set aside and were not treated with IFNγ, to serve as the Max-E control.
HeLa cells with and without IFNγ were dispensed to the respective wells of 384-well assay plates containing the compounds. The plates were incubated for about 48 hours at a 37° C., 5% CO2 incubator. Afterwards, 12 μL of 0.5 M methyl isonipecotate in dimethyl sulfoxide were added into each well and the plates were sealed and incubated at 37° C. without CO2 overnight. The plates were centrifuged for 1 min at 200×g. The resulting fluorescence was measured in a Spectramax plate reader (Molecular Devices) with a 400 nm excitation filter and a 510 nm emission filter.
The fluorescence intensity of each well was corrected for the background observed in wells with non-IFNγ-treated cells and was expressed as a fraction of the intensity observed in wells of IFNγ-treated cells and DMSO only. Potencies were calculated by linear least squares fit to the four parameter logistic IC50 equation.
Compounds disclosed herein generally have IC50 of about 0.1 nM to about 20,000 nM, or more specifically, about 1 nM to about 10,000 nM, or more specifically, about 5 nM to about 5,000 nM, or more specifically, about 10 nM to about 1,000 nM, or still more specifically, about 10 nM to about 500 nM.

IDO1, sequence (P14902 whole entry): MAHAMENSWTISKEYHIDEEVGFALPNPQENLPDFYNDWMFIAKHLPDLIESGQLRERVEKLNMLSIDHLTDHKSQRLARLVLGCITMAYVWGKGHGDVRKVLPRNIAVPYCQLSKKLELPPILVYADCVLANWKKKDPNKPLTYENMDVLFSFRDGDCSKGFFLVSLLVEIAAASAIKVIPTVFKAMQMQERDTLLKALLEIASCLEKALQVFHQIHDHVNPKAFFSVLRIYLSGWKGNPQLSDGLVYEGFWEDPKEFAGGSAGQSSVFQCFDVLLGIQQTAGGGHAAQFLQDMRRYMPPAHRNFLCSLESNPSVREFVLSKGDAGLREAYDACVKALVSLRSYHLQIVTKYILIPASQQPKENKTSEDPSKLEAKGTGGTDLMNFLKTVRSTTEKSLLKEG

Row | SMILES | IC50 [nM]
1 | CC(=O)NC1CCN(C(=O)c2nn(CC(=O)N3CCC(F)(c4cccc(C)c4C)CC3)c3c2[C@@H]2C[C@@H]2C3)CC1 [Example 12, N-(1-((3bR,4aR)-1-(2-(4-(2,3-dimethylphenyl)-4-fluoropiperidin-1-yl)-2-oxoethyl)-3b,4,4a,5-tetrahydro-1H-cyclopropa[3,4]cyclopenta[1,2-c]pyrazole-3-carbonyl)piperidin-4-yl)acetamide] | 2.1
2 | C[C@@H]1CN(C(=O)c2nn(CC(=O)N3CCC(c4ccc5ccccc5c4)CC3)c3c2CCC3)C[C@H](C)O1 [Example 76, 2-{3-[(2R,6S)-2,6-dimethylmorpholine-4-carbonyl]-5,6-dihydrocyclopenta[c]pyrazol-1(4H)-yl}-1-[4-(naphthalen-2-yl)piperidin-1-yl]ethan-1-one] | 199
3 | COc1c(C)cc(C2CCN(C(=O)Cn3nc(C(=O)N4C[C@@H](C)O[C@@H](C)C4)c4c3CCC4)CC2)cc1C [Example 102, 2-{3-[(2R,6S)-2,6-dimethylmorpholine-4-carbonyl]-5,6-dihydrocyclopenta[c]pyrazol-1(4H)-yl}-1-[4-(4-methoxy-3,5-dimethylphenyl)piperidin-1-yl]ethan-1-one] | 28.9
4 | Cc1cc(F)ccc1C1CCN(C(=O)Cn2nc(C(=O)N3CCO[C@H](CO)C3)c3c2CCC3)CC1 [Example 58, (S)-1-(4-(4-fluoro-2-methylphenyl)piperidin-1-yl)-2-(3-(2-(hydroxymethyl)morpholine-4-carbonyl)-5,6-dihydrocyclopenta[c]pyrazol-1(4H)-yl)ethanone] | 454
5 | Cc1c(F)cccc1C1CCCN(C(=O)Cn2nc(C(=O)N3C[C@@H](C)O[C@@H](C)C3)c3c2CCC3)C1 (stereo partly drawn) [Example 77, 2-{3-[(2R,6S)-2,6-dimethylmorpholine-4-carbonyl]-5,6-dihydrocyclopenta[c]pyrazol-1(4H)-yl}-1-[3-(3-fluoro-2-methylphenyl)piperidin-1-yl] ethan-1-one] | 233
6 | C[C@@H]1CN(C(=O)c2nn(CC(=O)N3CCC(c4ccccc4C(F)(F)F)C3)c3c2CCC3)C[C@H](C)O1 (stereo partly drawn) [Example 73, 2-{3-[(2R,6S)-2,6-dimethylmorpholine-4-carbonyl]-5,6-dihydrocyclopenta[c]pyrazol-1(4H)-yl}-1-{3-[2-(trifluoromethyl)phenyl]pyrrolidin-1-yl}ethan-1-one] | 152
7 | Cc1cccc(C2CCN(C(=O)Cn3nc(C(=O)N4CC[C@@H](O)[C@H](C)C4)c4c3CCC4)CC2)c1C [Example 39, 1-(4-(2,3-dimethylphenyl)piperidin-1-yl)-2-(3-((3R,4R)-4-hydroxy-3-methylpiperidine-1-carbonyl)-5,6-dihydrocyclopenta[c]pyrazol-1(4H)-yl)ethan-1-one] | 1.9
8 | C[C@@H]1CN(C(=O)c2nn(CC(=O)N3CCC(c4cc(F)cc(Cl)c4)CC3)c3c2CCC3)C[C@H](C)O1 [Example 99, 1-[4-(3-chloro-5-fluorophenyl)piperidin-1-yl]-2-{3-[(2R,6S)-2,6-dimethylmorpholine-4-carbonyl]-5,6-dihydrocyclopenta[c]pyrazol-1(4H)-yl}ethan-1-one] | 27.4
9 | Cc1c(C2CCN(C(=O)Cn3nc(C(=O)N4CCN(C(=O)CO)CC4)c4c3C[C@H]3C[C@@H]43)CC2)cccc1C(F)(F)F [Example 3, 2-hydroxy-1-(4-((3bR,4aR)-1-(2-(4-(2-methyl-3-(trifluoromethyl)phenyl)piperidin-1-yl)-2-oxoethyl)-3b,4,4a,5-tetrahydro-1H-cyclopropa[3,4]cyclopenta[1,2-c]pyrazole-3-carbonyl)piperazin-1-yl)ethanone] | 1.3

The next lines start with the values.

Row | IC50 [nM] | SMILES
10 | 149 | COc1ccc(F)c(C2CCN(C(=O)Cn3nc(C(=O)N4C[C@@H](C)O[C@@H](C)C4)c4c3CCC4)CC2)c1 [Example 156, 2-{3-[(2R,6S)-2,6-dimethylmorpholine-4-carbonyl]-5,6-dihydrocyclopenta[c]pyrazol-1(4H)-yl}-1-[4-(2-fluoro-5-methoxyphenyl)piperidin-1-yl]ethan-1-one]
11 | 126 | C[C@@H]1CN(C(=O)c2nn(CC(=O)N3CCC(c4ccc(F)c(C(F)(F)F)c4)CC3)c3c2CCC3)C[C@H](C)O1 [Example 151, 2-{3-[(2R,6S)-2,6-dimethylmorpholine-4-carbonyl]-5,6-dihydrocyclopenta[c]pyrazol-1(4H)-yl}-1-{4-[4-fluoro-3-(trifluoromethyl)phenyl]piperidin-1-yl}ethan-1-one]
12 | 109 | C[C@@H]1CN(C(=O)c2nn(CC(=O)N3CCC(c4ccc(C(F)(F)F)cc4F)CC3)c3c2CCC3)C[C@H](C)O1 [Example 147, 2-{3-[(2R,6S)-2,6-dimethylmorpholine-4-carbonyl]-5,6-dihydrocyclopenta[c]pyrazol-1(4H)-yl}-1-{4-[2-fluoro-4-(trifluoromethyl)phenyl]piperidin-1-yl}ethan-1-one]
13 | 64.1 | C[C@@H]1CN(C(=O)c2nn(CC(=O)N3CCC(c4ccc(F)c(F)c4F)CC3)c3c2CCC3)C[C@H](C)O1 [Example 128, 2-{3-[(2R,6S)-2,6-dimethylmorpholine-4-carbonyl]-5,6-dihydrocyclopenta[c]pyrazol-1(4H)-yl}-1-[4-(2,3,4-trifluorophenyl)piperidin-1-yl]ethan-1-one]
14 | 80.2 | C[C@@H]1CN(C(=O)c2nn(CC(=O)N3CCC(c4cc(F)c(F)c(F)c4Cl)CC3)c3c2CCC3)C[C@H](C)O1 [Example 132, 1-[4-(2-chloro-3,4,5-trifluorophenyl)piperidin-1-yl]-2-{3-[(2R,6S)-2,6-dimethylmorpholine-4-carbonyl]-5,6-dihydrocyclopenta[c]pyrazol-1(4H)-yl}ethan-1-one]
15 | 274 | C[C@@H]1CN(C(=O)c2nn(CC(=O)N3CCC(c4cc(Cl)cc(Cl)c4)CC3)c3c2CCC3)C[C@H](C)O1 [Example 167, 1-[4-(3,5-dichlorophenyl)piperidin-1-yl]-2-{3-[(2R,6S)-2,6-dimethylmorpholine-4-carbonyl]-5,6-dihydrocyclopenta[c]pyrazol-1(4H)-yl}ethan-1-one]
16 | 59 | C[C@@H]1CN(C(=O)c2nn(CC(=O)N3CCC(c4cc(F)c(F)c(F)c4)CC3)c3c2CCC3)C[C@H](C)O1 [Example 126, 2-{3-[(2R,6S)-2,6-dimethylmorpholine-4-carbonyl]-5,6-dihydrocyclopenta[c]pyrazol-1(4H)-yl}-1-[4-(3,4,5-trifluorophenyl)piperidin-1-yl]ethan-1-one]
17 | 142 | C[C@@H]1CN(C(=O)c2nn(CC(=O)N3CCC(c4cc(F)c(F)cc4Cl)CC3)c3c2CCC3)C[C@H](C)O1 [Example 154, 1-[4-(2-chloro-4,5-difluorophenyl)piperidin-1-yl]-2-{3-[(2R,6S)-2,6-dimethylmorpholine-4-carbonyl]-5,6-dihydrocyclopenta[c]pyrazol-1(4H)-yl}ethan-1-one]
18 | 64.1 | Cc1c(C#N)cccc1C1CCN(C(=O)Cn2nc(C(=O)N3C[C@@H](C)O[C@@H](C)C3)c3c2CCC3)CC1 [Example 129, 3-[1-({3-[(2R,6S)-2,6-dimethylmorpholine-4-carbonyl]-5,6-dihydrocyclopenta[c]pyrazol-1(4H)-yl}acetyl)piperidin-4-yl]-2-methylbenzonitrile]
19 | 48.9 | C[C@@H]1CN(C(=O)c2nn(CC(=O)N3CCC(c4cc(F)cc(F)c4F)CC3)c3c2CCC3)C[C@H](C)O1 [Example 117, 2-{3-[(2R,6S)-2,6-dimethylmorpholine-4-carbonyl]-5,6-dihydrocyclopenta[c]pyrazol-1(4H)-yl}-1-[4-(2,3,5-trifluorophenyl)piperidin-1-yl]ethan-1-one]

Reference: patent US12091405B2, “Substituted pyrazole compounds as indoleamine 2,3-dioxygenase inhibitors” (Merck Sharp & Dohme LLC, priority 2018, dated 2024)
